In the assay the target is T1, cGAMP binding domain of wild-type (GRR) human STING, residues 155-341 (Homo sapiens, UniProt Q86WV6, H232R).
T1 construct: His-TEV-hSTING (WT); TEV protease cleavage site (N); made in house; host or cells: E. coli BL21 DE3
Description: Increase of stability of STING protein against thermal denaturation, Differential Scanning Fluorimetry (DSF). A digest of the protocol: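 3 µM His-tagged protein with 100 uM compound, 5×SYPRO Orange, 2% DMSO in 20 mM Tris, 150 mM NaCl, pH7.5; 15–95 °C ramp in 0.5 °C steps (15 s/cycle). Tm from Boltzmann fit of the dye melt curve, duplicates averaged, repeated if SD>1.5 °C; ΔTm = Tm with compound minus Tm of protein alone.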
Background: Differential scanning fluorimetry follows unfolding on heating by fluorescence.

T1 sequence (Q86WV6 with tags, fused parts or gaps H232R): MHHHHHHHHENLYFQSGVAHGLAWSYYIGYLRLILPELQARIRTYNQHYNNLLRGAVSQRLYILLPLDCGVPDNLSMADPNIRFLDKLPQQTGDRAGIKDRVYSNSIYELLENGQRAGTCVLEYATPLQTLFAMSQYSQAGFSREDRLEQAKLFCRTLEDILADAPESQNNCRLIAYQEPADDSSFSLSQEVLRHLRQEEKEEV

As for `Cc1nc2nn(Cc3cccnc3)cc2cc1-n1nc(-c2cccc3nn(C[C@H](O)c4ccccc4)cc23)c(C(C)C)c1C` [Example 6, (1R)-2-[4-(5-methyl-1-{6-methyl-2-[(pyridin-3-yl)methyl]-2H-pyrazolo[3,4-b]pyridin-5-yl}-4-(propan-2-yl)-1H-pyrazol-3-yl)-2H-indazol-2-yl]-1-phenylethan-1-ol], the DSF stood at 29 K. Take `CC(C)c1nc2nn(C)cc2cc1-c1nc(-c2cccc3nn(C[S@@+]([O-])c4ccccc4)cc23)c(C2CC2)n1C` [Example 22, 2-{[(S)-benzenesulfinyl]methyl}-4-{5-cyclopropyl-1-methyl-2-[2-methyl-6-(propan-2-yl)-2H-pyrazolo[3,4-b]pyridin-5-yl]-1H-imidazol-4-yl}-2H-indazole]: the DSF is 33 K. The result for `Cc1nc2nn(C)cc2cc1-n1nc(-c2cccc3nn(C[C@H](OCCCCO)c4ccccc4)cc23)c(C(C)C)c1C` [Example 66, 4-[(1R)-2-[4-(1-{2,6-dimethyl-2H-pyrazolo[3,4-b]pyridin-5-yl}-5-methyl-4-(propan-2-yl)-1H-pyrazol-3-yl)-2H-indazol-2-yl]-1-phenylethoxy]butan-1-ol] reads 23 K.

These data come from patent US20260265244A1, “HETEROCYCLIC COMPOUNDS AS STING ANTAGONISTS” (Boehringer Ingelheim International GmbH, priority 2022, published 2026).
